Six compounds from patent US20020004220A1 (priority 1999, published 2002) can be followed below.

For assay [1], the system named is Staphylococcus aureus. Kind of assay: microbe, parasite or virus in culture. The assay is classed as cell-based. The note with it: read-out: MIC (MIC99).
Assay [2] has as its system Escherichia coli. Nature of the assay: microbe, parasite or virus in culture. The assay is classed as cell-based. The note with it: read-out: MIC (MIC99).

In brackets after ≈: the same amount, converted by molar mass.

For `O=C(N[C@H](CO)[C@H](O)c1ccc([N+](=O)[O-])cc1)C(Cl)Cl` [Chloramphenicol], the MIC99 in assay [1] and in assay [2] was 1.9 µg/mL (≈ 5.88 µM) each time. As to `CCn1cc(C(=O)O)c(=O)c2cc(F)c(N3CCNCC3)cc21` [Norfloxacin], the figures for the MIC99 in assay [1] and in assay [2] were 0.85 µg/mL (≈ 2.66 µM) and 0.045 µg/mL (≈ 0.141 µM), respectively. For `CC1(C)S[C@@H]2[C@H](NC(=O)Cc3ccccc3)C(=O)N2[C@H]1C(=O)O` [Penicillin], in that order: 0.024 µg/mL (≈ 0.0718 µM) and 3 µg/mL (≈ 8.97 µM). As for `CO[C@H]1/C=C/O[C@@]2(C)Oc3c(C)c(O)c4c(O)c(c(/C=N/N5CCN(C)CC5)c(O)c4c3C2=O)NC(=O)/C(C)=C\C=C\[C@H](C)[C@H](O)[C@@H](C)[C@@H](O)[C@@H](C)[C@H](OC(C)=O)[C@@H]1C` [Rifampicin], the MIC99 in assay [1] amounted to 0.004 µg/mL (≈ 0.00486 µM); in assay [2], 5 µg/mL (≈ 6.08 µM).

In the case of `NC[C@H]1O[C@H](O[C@H]2[C@H](O)[C@@H](O[C@H]3O[C@H](CO)[C@@H](O)[C@H](N)[C@H]3O)[C@H](N)C[C@@H]2N)[C@H](N)C[C@@H]1O` [Tobramycin], the MIC99 amounted to 0.27 µg/mL (≈ 0.578 µM) in assay [1] and 1.2 µg/mL (≈ 2.57 µM) in assay [2].

Consider `CN[C@H](CC(C)C)C(=O)N[C@H]1C(=O)N[C@@H](CC(N)=O)C(=O)N[C@H]2C(=O)N[C@H]3C(=O)N[C@H](C(=O)N[C@H](C(=O)O)c4cc(O)cc(O)c4-c4cc3ccc4O)[C@H](O)c3ccc(c(Cl)c3)Oc3cc2cc(c3O[C@@H]2O[C@H](CO)[C@@H](O)[C@H](O)[C@H]2O[C@H]2C[C@](C)(N)[C@H](O)[C@H](C)O2)Oc2ccc(cc2Cl)[C@H]1O` [Vancomycin], for which, in assay [1], the MIC99 came to 0.65 µg/mL (≈ 0.449 µM).
